The first data set is described as follows: method code SF, from Hansch, C. & Leo, A. (1987). Log P database [Dataset]. Pomona College Medicinal Chemistry Project.
Conditions: not given
`FC(F)(F)C(F)(F)c1ccccc1`: the log partition coefficient (logP) (in general, the decadic logarithm of the partition coefficient of the neutral form, usually between octanol and water) was determined as 3.36. Still for that read-out and setting: the result for `CN(Cc1ccc(C#N)cc1)/N=N/c1ccc(C(=O)O)cc1` reads 3.6; that for `COC(=O)c1ccccc1Cl`, 2.38.

`CC(=O)OCC(COC(C)=O)OC(C)=O`: the logP turned out to be 0.25. With `CC1(C)O[C@@H]2C[C@H]3[C@@H]4C[C@H](F)C5=CC(=O)C=C[C@]5(C)[C@@]4(F)[C@@H](O)C[C@]3(C)[C@]2(C(=O)CO)O1`, the logP is 2.48. Still for that read-out and setting: the result for `COc1cn[nH]c1` reads 0.37; that for `C=C(Cl)Cl`, 2.13; that for `CCC(=O)OCC(=O)[C@@]1(OC(=O)CC)[C@H](C)C[C@H]2[C@@H]3C[C@H](F)C4=CC(=O)C(Cl)=C[C@]4(C)[C@@]3(F)[C@@H](O)C[C@@]21C`, 4.22.

`CC(C)Oc1cn[nH]c1`: the log partition coefficient (logP) amounted to 1.13. Same read-out and setting: the result for `C/N=C(\NC)NC#N` reads -0.4.

`CC1=Nc2ccc(S(=O)(=O)N(C)C)cc2S(=O)(=O)N1` showed a logP of 0.32. In turn, `CC1=Nc2cc(C)ccc2S(=O)(=O)N1` returned a logP of 0.74. The same measure, in the same setting: the result for `C[C@@H]1C[C@H]2[C@@H]3C[C@H](F)C4=CC(=O)C=C[C@]4(C)[C@@]3(F)[C@@H](O)C[C@]2(C)[C@@]1(O)C(=O)COC(=O)C(C)(C)C` reads 3.86; that for `OC[C@@H](O)[C@@H](O)CO`, -2.29; that for `CC(C)C1OC(=O)c2ccccc21` (stereo not drawn), 2.1.

Compound `COc1cc(C(=O)C=CN2CC=CC2)cc(OC)c1OC` came in with a logP of 1.77. For the compound `OCCCC(F)(F)F`, the logP is 0.9. As to `COP(=O)(NC(C)(C)C)Oc1cc(Cl)c(Cl)cc1Cl` (stereo not drawn), the logP was found to be 3.83. The same measure, in the same setting: the result for `CC(=O)C(Cc1ccccc1)C(C)=O` reads 1.89. The same measure, in the same setting: the result for `CCCCC1OC(=O)c2cc([N+](=O)[O-])ccc21` (stereo not drawn) reads 2.92; that for `COP(=O)(NCC(C)C)Oc1cc(Cl)c(Cl)cc1Cl` (stereo not drawn), 3.86. Compound `NC(=O)NCc1ccccc1` gave a logP of 0.73. Same read-out and setting: the result for `CCCCC(=Cc1ccccc1)C(=O)NC(C)CC` (stereo not drawn) reads 4.07; that for `Cc1cccc(NC(=O)c2ccccc2)c1`, 2.75; that for `NNc1ncnc2c([C@@H]3O[C@H](CO)[C@@H](O)[C@H]3O)n[nH]c12`, -1.42. The same measure, in the same setting: the result for `CC(C(=O)N(C)c1ccc(S(=O)(=O)N(C)C)cc1)c1ccccc1` (stereo not drawn) reads 1.73; that for `CCCCC1OC(=O)c2cc(NC(C)=O)ccc21` (stereo not drawn), 2.77; that for `CN1C(=O)c2ccccc2C1=O`, 1.31. Same read-out and setting: the result for `COc1cccc2cccnc12` reads 1.84; that for `O=C1OC(c2ccccc2)c2ccccc21` (stereo not drawn), 2.64; that for `CNC(=O)O/N=C(\C)C(C)(C)[N+](=O)[O-]`, 0.66. On to `S=c1cccc[nH]1`, for which the logP was -0.13. In turn, `COc1cc(/C=N/O)ccc1OCCOC(=O)c1ccc(Cl)cc1` had a log partition coefficient (logP) of 3.92. With `CC(=O)Nc1ccc2c(=O)c(C)c(C)oc2c1[N+](=O)[O-]`, the logP is 1.61. The compound `CCOC(=O)c1ccccc1N` registered a lipophilicity (logP) of 2.57. Same read-out and setting: the result for `O=S(=O)(Nc1ccccc1)c1ccccc1` reads 2.58; that for `CC(=O)Oc1ccccc1C#N`, 1.33; that for `CNP(=O)(OC)Oc1cccc(C(C)(C)C)c1` (stereo not drawn), 2.65. Same read-out and setting: the result for `CCOC(=O)CON=Cc1ccc(OCCOC(=O)c2cc(OC)c(OC)c(OC)c2)c(OC)c1` reads 3.26. On the same count and under the same terms, the result for `O=S(=O)(Oc1ccccc1)c1ccccc1` reads 3.06; that for `CCCC(O)CCC`, 2.22; that for `NC(=O)c1cccc(OC(=O)CNC(=O)c2ccccc2)c1`, 1.2. `O=C(Nc1ccccc1)NC(CO)(CO)CO` had a log partition coefficient (logP) of 0.43.

For `O=C(CCl)Nc1ccc(Cl)c(Cl)c1`, the lipophilicity (logP) was determined as 3.29. Same read-out and setting: the result for `O=[N+]([O-])c1ccc2[nH]c(CCCc3nc4cc([N+](=O)[O-])ccc4[nH]3)nc2c1` reads 1.62; that for `CCCCC`, 3.23.

The compound `CC(=O)C(=Cc1ccc(F)cc1)C(C)=O` gave a lipophilicity (logP) of 1.65. For the compound `O=C(O)COc1ccc(Cl)c(Cl)c1`, the log partition coefficient (logP) turned out to be 2.81. Still for that read-out and setting: the result for `COc1ccc2[nH]c(CCCc3nc4cc(OC)ccc4[nH]3)nc2c1` reads 1.75; that for `O=C1C=CCCC1`, 0.61. In turn, `O=S(=O)(c1ccccc1)C(F)(F)F` gave a logP of 2.69. Take `CNC(N)=NC#N`: the lipophilicity (logP) is -0.77.

Compound `CN(C)S(=O)(=O)c1ccccc1` had a log partition coefficient (logP) of 1.35. The same measure, in the same setting: the result for `FC(F)(F)Oc1ccccc1` reads 3.17; that for `O=Cc1cccs1`, 1.02. Still for that read-out and setting: the result for `NC(=O)c1ccc(O)cc1` reads 0.33; that for `O=[N+]([O-])c1ccc(C=Cc2nccn2Cc2ccncc2)o1`, 1.67. `N#Cc1ccco1` gave a lipophilicity (logP) of 0.96. In the case of `O=NN(CCCl)C(=O)NC(C(=O)O)C1CCCCC1` (stereo not drawn), the logP is -0.63. As for `CC(=O)N(C)/N=N/c1ccc(C)cc1`, the lipophilicity (logP) was 3.23. The same measure, in the same setting: the result for `CCc1ccc2c(c1)C(=O)c1ccc(NC(C)=O)cc1S2(=O)=O` reads 3.44; that for `Ic1cn[nH]c1`, 1.7; that for `CC(=O)Oc1ccc(N=C2C=CC(=O)C=C2)cc1`, 1.43. Same read-out and setting: the result for `COc1cccc(OC)c1OC` reads 1.53; that for `OCc1ccoc1`, 0.3; that for `O=C(/C=C/c1ccccc1)N1CCCCC1`, 2.74. `CCCCOC(=O)c1cccc(C(=O)OCCCC)c1` registered a lipophilicity (logP) of 4.26. `c1ccc2cnncc2c1` came in with a logP of 0.57. Turning to `O=[N+]([O-])CCO`, the logP is -0.42. Still for that read-out and setting: the result for `CN(C)C(=S)NCc1ccccc1` reads 1.59.

Regarding `c1ccc2[nH]c(CCCCc3nc4ccccc4[nH]3)nc2c1`, the logP amounted to 1.59. The same measure, in the same setting: the result for `CC1=Nc2c(C)cccc2S(=O)(=O)N1` reads 0.52; that for `OC(c1ccccc1)C1CCCCN1` (stereo not drawn), 1.28. Consider `COc1ccc(-c2nc3cnccc3[nH]2)c(OC)c1`, for which the logP stood at 2.56. Same read-out and setting: the result for `COc1ccc(C(N)=O)cc1` reads 0.86; that for `O=[N+]([O-])c1ccc(C=Cc2nc[nH]n2)o1`, 1.1. On the same count and under the same terms, the result for `NC(=O)NC1OC(=O)c2ccccc21` (stereo not drawn) reads 0.49; that for `NC(=O)c1ccc(Cl)cc1`, 1.53; that for `C=CC(N)=O`, -0.67. The same measure, in the same setting: the result for `O=C(O)CCS` reads 0.43; that for `CC(=O)N[C@@H]1CC(=O)N(c2ccccc2)C1=O`, -0.33. The compound `COc1nnccc1N(C)C` showed a log partition coefficient (logP) of 0.9. On the same count and under the same terms, the result for `CCCC(=O)Nc1ccc(Cl)c(Cl)c1` reads 3.77; that for `CCNC(N)=O`, -0.74; that for `OCC(O)COc1ccccc1` (stereo not drawn), 0.7. Compound `O=C(O)c1ccc(NCc2ccccc2)cc1` showed a logP of 2.44.

Take `CCCCCCCCC1OC(=O)c2ccccc21` (stereo not drawn): the logP was determined as 3.94. On the same count and under the same terms, the result for `c1nnn[nH]1` reads -0.6; that for `CC1=NCCN1`, 0.52.

With `Cc1ccc(S(=O)(=O)F)cc1`, the logP turned out to be 2.74. Same read-out and setting: the result for `CN(C)C(=O)CCc1ccco1` reads 0.62; that for `O=C1C=CC(=O)c2c(O)cccc21`, 1.92; that for `Cn1ncc2ccccc2c1=O`, 0.61. On the same count and under the same terms, the result for `CSc1nccc(O)n1` reads 0.22.

`O=C1NC(c2cccc3ccccc23)Nc2ccccc21` (stereo not drawn) returned a lipophilicity (logP) of 2.96. Still for that read-out and setting: the result for `CCC(C)NC(=O)C(=Cc1ccccc1)OC` (stereo not drawn) reads 2.86; that for `CC(=O)Oc1ccccc1Br`, 2.2. Consider `CCCCC1OC(=O)c2ccccc21` (stereo not drawn), for which the logP amounted to 2.8. For `CCN(CC)C(=O)[C@@H]1C=C2c3cccc4[nH]cc(c34)C[C@H]2N(C)C1`, the logP came to 2.95. The same measure, in the same setting: the result for `Nc1cc(OCC(=O)O)ccc1Cl` reads 1.16. Still for that read-out and setting: the result for `NC(=O)c1cccc(C(N)=O)c1` reads -0.21.

The compound `C=C(C)C` yielded a log partition coefficient (logP) of 2.34. In turn, `O=c1cncc[nH]1` displayed a logP of -1.49. Still for that read-out and setting: the result for `O=C(CNC(=O)c1ccccc1)Oc1cccc(C(F)(F)F)c1` reads 3.3; that for `CO[C@@H]1O[C@H](COC(C)=O)[C@@H](OC(C)=O)[C@H](NC(=O)N(CCCl)N=O)[C@H]1OC(C)=O`, 0.67; that for `COC(=O)c1cccc(O)c1`, 1.89. The same measure, in the same setting: the result for `CCSc1ccccc1` reads 3.2; that for `CCCCN(C)N=Nc1cn([C@@H]2O[C@H](CO)[C@@H](O)[C@H]2O)c(=O)n(C)c1=O`, -0.45. On the same count and under the same terms, the result for `CCOP(=S)(OCC)N1C(=O)c2ccccc2C1=O` reads 3.48.

As for `OCC(F)(F)C(F)(F)F`, the lipophilicity (logP) came out at 1.23. Same read-out and setting: the result for `O=[N+]([O-])c1ccc2ncccc2c1` reads 1.84; that for `NC(=O)c1cccc(F)c1`, 0.91; that for `COc1ccc(CN(CCN(C)C)c2ccccn2)cc1`, 2.85.

Take `CCN(CC)c1ccc(/N=N/c2ccc(Br)cn2)c(O)c1`: the logP worked out at 4.23.

Staying with this data set, now noted: pH 0.7.
For the compound `O=C1CC(C(=O)O)Oc2ccccc21` (stereo not drawn), the pH-dependent lipophilicity (logD) (usually lipophilicity at a set pH, counting ionised and neutral species) turned out to be 1.26.

The same data set, now with this note: pH 1.0.
`O=C(O)c1ccccc1-c1ccccc1` registered a logD of 2.89.

Staying with this data set, now noted: pH 4.2.
Regarding `COCCN(N=Nc1[nH]cnc1C(N)=O)C(C)(C)C`, the pH-dependent lipophilicity (logD) came out at 1.14. On to `Nc1nc(=O)c2[nH]nnc2[nH]1`, for which the log distribution coefficient (logD) was -0.71.

Staying with this data set, now noted: pH 5.4.
`COC(=O)c1cc2nc(S(=O)Cc3ncccc3C)[nH]c2cc1C` (stereo not drawn): the log distribution coefficient (logD) came to 2.4.

Staying with this data set, now noted: pH 7.0.
`CC(=O)Nc1cccc(OC(C)=O)c1` yielded a log distribution coefficient (logD) of 1.03.

For `COc1cccc(C(C)=O)c1`, the log distribution coefficient (logD) was 1.84. Same read-out and setting: the result for `CO[C@H]1[C@@H](O)[C@@H](C)O[C@H](O[C@H]2[C@H](Oc3cccc4c(O)c5c(=O)oc6ccc(C)c7c(=O)oc(c34)c5c67)O[C@H](C)[C@H](O)[C@@H]2O)[C@@H]1O` reads 1.8. Still for that read-out and setting: the result for `CCCCOC(=O)c1cccnc1` reads 2.27.

Staying with this data set, now noted: pH 7.4.
Regarding `COc1ccc2c(c1O)-c1cccc3c1C(C2)N(CCO)CC3` (stereo not drawn), the pH-dependent lipophilicity (logD) stood at 2.43. Take `Cc1cc(C(=O)NNCc2ccccc2)no1`: the log distribution coefficient (logD) was 1.49. `CNN=CCCc1ccccc1`: the log distribution coefficient (logD) was found to be 1.

Still in this data set, the particulars now being: pH 11.0.
Turning to `c1cncc(CN2CCCCC2)c1`, the logD came out at 1.49.

In turn, `NCc1cccnc1` showed a logD of -0.1.

(Values after the SangsterLogP compilation.)
